According to patent US11014911B2, “CDK2 inhibitors” (Pfizer Inc., priority 2019, dated 2021):
pKi: −log10 of the molar value.

Biological target: CDK2/Cyclin E1 full length (Homo sapiens (Human), UniProt P24941)
Assay: CDK2/Cyclin E1 full length mobility shift assay
Type: biochemical

| SMILES | pKi |
| --- | --- |
| Cc1cc(CC(=O)Nc2cc([C@H]3CC[C@@H](OC(=O)NC4(C)CC4)C3)[nH]n2)ncc1Cl [Example 440, (1R,3S)-3-(3-{[(5-chloro-4-methylpyridin-2-yl)acetyl]amino}-1H-pyrazol-5-yl)cyclopentyl (1-methylcyclopropyl)carbamate] | 8.83 |
| CC(CC(F)F)NC(=O)O[C@@H]1CC[C@H](c2cc(NC(=O)Cc3cnn(C)c3)n[nH]2)C1 (single isomer, unassigned) [Example 387] | 9.52 |
| Cc1cnc(CC(=O)Nc2cc([C@H]3CC[C@@H](OC(=O)NCCC(F)(F)F)C3)[nH]n2)cn1 [Example 220, (1R,3S)-3-(3-{[(5-methylpyrazin-2-yl)acetyl]amino}-1H-pyrazol-5-yl)cyclopentyl (3,3,3-trifluoropropyl)carbamate] | 8.49 |
| Cc1ncc(CC(=O)Nc2cc([C@H]3CC[C@@H](OC(=O)NC(C)C)C3)[nH]n2)s1 [Example 2, (1R,3S)-3-(3-{[(2-methyl-1,3-thiazol-5-yl)acetyl]amino}-1H-pyrazol-5-yl)cyclopentyl propan-2-ylcarbamate] | 9.51 |
| Cc1nc(CC(=O)Nc2cc([C@H]3CC[C@@H](OC(=O)NC4(C)CC4)C3)[nH]n2)ccc1Cl [Example 442, (1R,3S)-3-(3-{[(5-chloro-6-methylpyridin-2-yl)acetyl]amino}-1H-pyrazol-5-yl)cyclopentyl (1-methylcyclopropyl)carbamate] | 9.43 |
| Cc1nnc(CC(=O)Nc2cc([C@H]3CC[C@@H](OC(=O)NC4(C)CCC4)C3)[nH]n2)s1 [Example 18, (1R,3S)-3-(3-{[(5-methyl-1,3,4-thiadiazol-2-yl)acetyl]amino}-1H-pyrazol-5-yl)cyclopentyl (1-methylcyclobutyl)carbamate] | 9.77 |
| Cc1coc(CC(=O)Nc2cc([C@H]3CC[C@@H](OC(=O)N[C@H](C)CC(F)(F)F)C3)[nH]n2)n1 [Example 395, (1R,3S)-3-(3-{[(4-methyl-1,3-oxazol-2-yl)acetyl]amino}-1H-pyrazol-5-yl)cyclopentyl [(2R)-4,4,4-trifluorobutan-2-yl]carbamate] | 8.84 |
| Cc1cc(CC(=O)Nc2cc([C@H]3CC[C@@H](OC(=O)N4[C@H](C)C[C@@H]4C)C3)[nH]n2)on1 [Example 607, (1R,3S)-3-(3-{[(3-methyl-1,2-oxazol-5-yl)acetyl]amino}-1H-pyrazol-5-yl)cyclopentyl (2R,4S)-2,4-dimethylazetidine-1-carboxylate] | 8.72 |
| CCC1CCN1C(=O)O[C@@H]1CC[C@H](c2cc(NC(=O)Cc3ncc(C)o3)n[nH]2)C1 (single isomer, unassigned) [Example 600] | 8.67 |
| COc1cnc(CC(=O)Nc2cc([C@H]3CC[C@@H](OC(=O)N4CCC4(C)C)C3)[nH]n2)cn1 [Example 602, (1R,3S)-3-(3-{[(5-methoxypyrazin-2-yl)acetyl]amino}-1H-pyrazol-5-yl)cyclopentyl 2,2-dimethylazetidine-1-carboxylate] | 9.52 |
| Cc1cnc(CC(=O)Nc2cc([C@H]3CC[C@@H](OC(=O)N4CC[C@@H]4C)C3)[nH]n2)cn1 [Example 591, (1R,3S)-3-(3-{[(5-methylpyrazin-2-yl)acetyl]amino}-1H-pyrazol-5-yl)cyclopentyl (2S)-2-methylazetidine-1-carboxylate] | 8.78 |
| COc1cc(CC(=O)Nc2cc([C@H]3CC[C@@H](OC(=O)N4C[C@@H](C#N)[C@@H]4C)C3)[nH]n2)ccn1 (single isomer, unassigned) [Example 156] | 8.66 |
| CC(C)(C)NC(=O)O[C@@H]1CC[C@H](c2cc(NC(=O)Cc3ccc(F)cn3)n[nH]2)C1 [Example 300, (1R,3S)-3-(3-{[(5-fluoropyridin-2-yl)acetyl]amino}-1H-pyrazol-5-yl)cyclopentyl tert-butylcarbamate] | 9.19 |
| CC[C@H](C)NC(=O)O[C@@H]1CC[C@H](c2cc(NC(=O)Cc3ccccc3S(N)(=O)=O)n[nH]2)C1 [Example 49] | 9.72 |
| COc1cc(CC(=O)Nc2cc([C@H]3CC[C@@H](OC(=O)N4C[C@H](O)[C@H]4C)C3)[nH]n2)ccn1 [Example 613, (1R,3S)-3-(3-{[(2-methoxypyridin-4-yl)acetyl]amino}-1H-pyrazol-5-yl)cyclopentyl (2R,3S)-3-hydroxy-2-methylazetidine-1-carboxylate] | 8.53 |
| COc1ccc(CC(=O)Nc2cc([C@H]3CC[C@@H](OC(=O)N4CCC4C)C3)[nH]n2)cn1 (single isomer, unassigned) [Example 152] | 8.97 |
| CCC(CO)CNC(=O)O[C@@H]1CC[C@H](c2cc(NC(=O)Cc3ccc(OC)cc3)n[nH]2)C1 (single isomer, unassigned) [Example 531] | 8.82 |
| CN1CC(CNC(=O)O[C@H]2CC[C@@H](c3cc(NC(=O)Cc4cc(F)cc(F)c4)n[nH]3)C2)OCC1=O (single isomer, unassigned) [Example 584] | 8.42 |
| O=C(Cc1cc(F)cc(F)c1)Nc1cc([C@@H]2CC[C@H](OC(=O)NCC3CCOCC3)C2)[nH]n1 [Example 513, (1S,3R)-3-(3-{[(3,5-difluorophenyl)acetyl]amino}-1H-pyrazol-5-yl)cyclopentyl (tetrahydro-2H-pyran-4-ylmethyl)carbamate] | 8.50 |

| SMILES | pKi |
| --- | --- |
| CCCNC(=O)O[C@@H]1CC[C@H](c2cc(NC(=O)c3ccnn3CCN(C)C)n[nH]2)C1 [Example 195, (1R,3S)-3-{3-[({1-[2-(dimethylamino)ethyl]-1H-pyrazol-5-yl}carbonyl)amino]-1H-pyrazol-5-yl}cyclopentyl propylcarbamate] | 8.36 |
| Cc1cnc(CC(=O)Nc2cc([C@H]3CC[C@@H](OC(=O)N4[C@@H](C)C[C@@H]4C)C3)[nH]n2)cn1 [Example 608, (1R,3S)-3-(3-{[(5-methylpyrazin-2-y)acetyl]amino}-1H-pyrazol-5-yl)cyclopentyl (2S,4S)-2,4-dimethylazetidine-1-carboxylate] | 8.95 |
| COc1cnc(CC(=O)Nc2cc([C@H]3CC[C@@H](OC(=O)NC(C)(C)C)C3)[nH]n2)s1 [Example 311, (1R,3S)-3-(3-{[(5-methoxy-1,3-thiazol-2-yl)acetyl]amino}-1H-pyrazol-5-yl)cyclopentyl tert-butylcarbamate] | 9.44 |
| Cn1ccc(CC(=O)Nc2cc([C@H]3CC[C@@H](OC(=O)NC4(C)CC4)C3)[nH]n2)n1 [Example 421, (1R,3S)-3-(3-{[(1-methyl-1H-pyrazol-3-yl)acetyl]amino}-1H-pyrazol-5-yl)cyclopentyl (1-methylcyclopropyl)carbamate] | 9.03 |
| COc1cc(CC(=O)Nc2cc([C@H]3CC[C@@H](OC(=O)NC4CCOCC4)C3)[nH]n2)ccn1 [Example 504, (1R,3S)-3-(3-{[(2-methoxypyridin-4-yl)acetyl]amino}-1H-pyrazol-5-yl)cyclopentyl tetrahydro-2H-pyran-4-ylcarbamate] | 8.44 |
| COc1cc(C(=O)Nc2cc([C@H]3CC[C@@H](OC(=O)NC4(C)CCOC4)C3)[nH]n2)n(C)n1 (single isomer, unassigned) [Example 479] | 9.05 |
| Cc1nc(CC(=O)Nc2cc([C@H]3CC[C@@H](OC(=O)NC(C)(C)C)C3)[nH]n2)cs1 [Example 304, (1R,3S)-3-(3-{[(2-methyl-1,3-thiazol-4-yl)acetyl]amino}-1H-pyrazol-5-yl)cyclopentyl tert-butylcarbamate] | 8.85 |
| CCCNC(=O)O[C@@H]1CC[C@H](c2cc(NC(=O)Cc3ccccc3S(N)(=O)=O)n[nH]2)C1 [Example 204, (1R,3S)-3-(3-{[(2-sulfamoylphenyl)acetyl]-amino}-1H-pyrazol-5-yl)cyclopentyl propylcarbamate] | 8.95 |
| CC(C)NC(=O)O[C@H]1CC[C@@H](c2cc(NC(=O)Cc3ccccn3)n[nH]2)C1 [Example 264, (1S,3R)-3-{3-[(pyridin-2-ylacetyl)amino]-1H-pyrazol-5-yl}cyclopentyl propan-2-ylcarbamate] | 8.74 |
| Cn1ncc(CC(=O)Nc2cc([C@H]3CC[C@@H](OC(=O)NC4(C)CCOC4)C3)[nH]n2)c1C(F)(F)F (single isomer, unassigned) [Example 496] | 8.65 |
| CC1(NC(=O)O[C@@H]2CC[C@H](c3cc(NC(=O)Cc4ncccc4F)n[nH]3)C2)CC1 [Example 429, (1R,3S)-3-(3-{[(3-fluoropyridin-2-yl)acetyl]amino}-1H-pyrazol-5-yl)cyclopentyl (1-methylcyclopropyl)carbamate] | 8.94 |
| CC[C@H](C)NC(=O)O[C@@H]1CC[C@H](c2cc(NC(=O)Cc3cnn(C)c3C(F)(F)F)n[nH]2)C1 [Example 365, (1R,3S)-3-[3-({[1-methyl-5-(trifluoromethyl)-1H-pyrazol-4-yl]acetyl}amino)-1H-pyrazol-5-yl]cyclopentyl (2S)-butan-2-ylcarbamate] | 8.68 |
| CCCNC(=O)O[C@H]1CC[C@@H](c2cc(NC(=O)Cc3cn4c(C)csc4n3)n[nH]2)C1 [Example 199, (1S,3R)-3-(3-{[(3-methylimidazo[2,1-b][1,3]thiazol-6-yl)acetyl]amino}-1H-pyrazol-5-yl)cyclopentyl propylcarbamate] | 8.46 |
| C[C@H](NC(=O)O[C@@H]1CC[C@H](c2cc(NC(=O)Cc3ccon3)n[nH]2)C1)C1CC1 [Example 466, (1R,3S)-3-{3-[(1,2-oxazol-3-ylacetyl)amino]-1H-pyrazol-5-yl}cyclopentyl [(1S)-1-cyclopropylethyl]carbamate] | 8.99 |
| COc1cc(CC(=O)Nc2cc([C@H]3CC[C@@H](OC(=O)NC(C)C(C)(F)F)C3)[nH]n2)ccn1 (single isomer, unassigned) [Example 392] | 8.50 |
| CCC(O)CNC(=O)O[C@@H]1CC[C@H](c2cc(NC(=O)Cc3cc(F)cc(F)c3)n[nH]2)C1 (single isomer, unassigned) [Example 543] | 8.71 |
| Cn1ccc(CC(=O)Nc2cc([C@H]3CC[C@@H](OC(=O)NC4(C)CCOCC4)C3)[nH]n2)n1 [Example 507, (1R,3S)-3-(3-{[(1-methyl-1H-pyrazol-3-yl)acetyl]amino}-1H-pyrazol-5-yl)cyclopentyl (4-methyltetrahydro-2H-pyran-4-yl)carbamate] | 8.43 |
| Cc1cc(CC(=O)Nc2cc([C@H]3CC[C@@H](OC(=O)NC(C)C)C3)[nH]n2)no1 [Example 269, (1R,3S)-3-(3-{[(5-methyl-1,2-oxazol-3-yl)acetyl]amino}-1H-pyrazol-5-yl)cyclopentyl propan-2-ylcarbamate] | 8.77 |
